ChEMBL document CHEMBL1124754, “Hypoxia-selective antitumor agents. 4. Relationships between structure, physicochemical properties, and hypoxia-selective cytotoxicity for nitracrine analogues with varying side chains: the "iminoacridan hypothesis"” (J Med Chem, 1990)

What was measured:
[1] = Tested for the concentration of the drug to reduce cell numbers to 50 percent of controls against AA8 cells in the microassay; type: functional, cell-based, Cricetulus griseus; details: cho-aa8
[2] = Hypersensitivity factor, IC50 (AA8) air /IC50 (UV4) in N2; type: functional
[3] = Tested for the product of the drug concentration to the exposure time needed to reduce cell survival to 10% of controls using AA8 cells at 10 E 6 /mL in the clonogenic assay; type: functional, Cricetulus griseus, CHO-AA8
[4] = IC50 (air/N2) ratio of the drug to reduce cell numbers to 50 percent of controls using AA8 cells in the microassay; type: functional, Cricetulus griseus, CHO-AA8
[5] = Hypersensitivity factor, IC50 (AA8) air /IC50 (UV4) in air; type: functional
[6] = CT10 (air/N2) ratio of the product of the drug concentration to the exposure time needed to reduce cell survival to 10% of controls using AA8 cells at 10 E 6 /mL in the clonogenic assay; type: functional, Cricetulus griseus, CHO-AA8
[7] = Acridine pKa values were determined in aqueous solution at 25 degrees Centigrade by spectrophotometric method.; type: physicochemical
[8] = CT10 (air/N2) ratio of the product of the drug concentration to the exposure time needed to reduce cell survival to 10% of controls using AA8 cells at 10 E 6 /mL in the clonogenic assay; range is 0.8-1.5; type: functional, Cricetulus griseus, CHO-AA8
[9] = CT10 (air/N2) ratio of the product of the drug concentration to the exposure time needed to reduce cell survival to 10% of controls using AA8 cells at 10 E 6 /mL in the clonogenic assay; range is 1-2; type: functional, Cricetulus griseus, CHO-AA8

Compound	IC50 [1]	HF [2]	CT10 [3]	IC50 ratio [4]	HF [5]	CT10 ratio [6]	pKa [7]	CT10 ratio [8]	CT10 ratio [9]
O=C(O)CCCNc1c2ccccc2nc2cccc([N+](=O)[O-])c12	18 µM	6.6	50 µM·h	4.2	6.1	2.5	–	–	–
O=[N+]([O-])c1cccc2nc3ccccc3c(NCCO)c12	0.0115 µM	18	0.13 µM·h	1.1	15	3.2	7.2	–	–
O=[N+]([O-])c1cccc2nc3ccccc3c(NCCCO)c12	0.027 µM	13	0.43 µM·h	1.45	15	3	7.55	–	–
O=[N+]([O-])c1cccc2nc3ccccc3c(NCc3ccccc3)c12	0.38 µM	17	9 µM·h	1.2	12	1.9	7.4	–	–
CN(C)CCCCCCNc1c2ccccc2nc2cccc([N+](=O)[O-])c12	0.0115 µM	–	0.38 µM·h	1.55	–	6.8	7.4	–	–
CNc1c2ccccc2nc2cccc([N+](=O)[O-])c12	0.0038 µM	11	0.01 µM·h	1.3	11	–	7.2	1.5	–
O=[N+]([O-])c1cccc2nc3ccccc3c(NCCc3ccccc3)c12	0.122 µM	15	2.8 µM·h	1.3	14	2.3	7.4	–	–
CN(C)CCCNc1c2ccccc2nc2cccc([N+](=O)[O-])c12 [NITRACRINE]	0.0263 µM	14.9	0.47 µM·h	3.5	12.9	9.9	6.2	–	–
CC(C)CCNc1c2ccccc2nc2cccc([N+](=O)[O-])c12	0.12 µM	16	3.2 µM·h	1.13	12	2.4	7.4	–	–
CN(C)CCCCNc1c2ccccc2nc2cccc([N+](=O)[O-])c12	0.026 µM	29	0.46 µM·h	2.6	20	11.9	6.9	–	–
CNCCCNc1c2ccccc2nc2cccc([N+](=O)[O-])c12	0.034 µM	11	0.38 µM·h	4.8	14	5.9	6.2	–	–
CN(C)CCNc1c2ccccc2nc2cccc([N+](=O)[O-])c12	0.047 µM	15	1.22 µM·h	7.4	19	14	4.9	–	–
CN(C)CCCCCNc1c2ccccc2nc2cccc([N+](=O)[O-])c12	0.0155 µM	–	0.32 µM·h	1.65	–	7	7.4	–	–
Nc1c2ccccc2nc2cccc([N+](=O)[O-])c12	3.6 µM	5.8	3.9 µM·h	1.02	4.5	–	7.3	–	2
CCCNc1c2ccccc2nc2cccc([N+](=O)[O-])c12	0.032 µM	20	0.62 µM·h	1.42	11	3.4	7.2	–	–
